From patent US10670605B2, “Cysteine reactive probes and uses thereof” (The Scripps Research Institute, priority 2015, dated 2020)

Assays:
Assay in all cases: Competitive isoTOP-ABPP in situ (fragment-treated cells)
Type in all cases: cell-based
[1] = target: cysteines in MDA-MB-231 and Ramos cells (Homo sapiens, UniProt O14980)
[2] = target: T1, cysteines in MDA-MB-231 and Ramos cells (Homo sapiens, UniProt Q01433)
T1 sequence (Q01433 1-825): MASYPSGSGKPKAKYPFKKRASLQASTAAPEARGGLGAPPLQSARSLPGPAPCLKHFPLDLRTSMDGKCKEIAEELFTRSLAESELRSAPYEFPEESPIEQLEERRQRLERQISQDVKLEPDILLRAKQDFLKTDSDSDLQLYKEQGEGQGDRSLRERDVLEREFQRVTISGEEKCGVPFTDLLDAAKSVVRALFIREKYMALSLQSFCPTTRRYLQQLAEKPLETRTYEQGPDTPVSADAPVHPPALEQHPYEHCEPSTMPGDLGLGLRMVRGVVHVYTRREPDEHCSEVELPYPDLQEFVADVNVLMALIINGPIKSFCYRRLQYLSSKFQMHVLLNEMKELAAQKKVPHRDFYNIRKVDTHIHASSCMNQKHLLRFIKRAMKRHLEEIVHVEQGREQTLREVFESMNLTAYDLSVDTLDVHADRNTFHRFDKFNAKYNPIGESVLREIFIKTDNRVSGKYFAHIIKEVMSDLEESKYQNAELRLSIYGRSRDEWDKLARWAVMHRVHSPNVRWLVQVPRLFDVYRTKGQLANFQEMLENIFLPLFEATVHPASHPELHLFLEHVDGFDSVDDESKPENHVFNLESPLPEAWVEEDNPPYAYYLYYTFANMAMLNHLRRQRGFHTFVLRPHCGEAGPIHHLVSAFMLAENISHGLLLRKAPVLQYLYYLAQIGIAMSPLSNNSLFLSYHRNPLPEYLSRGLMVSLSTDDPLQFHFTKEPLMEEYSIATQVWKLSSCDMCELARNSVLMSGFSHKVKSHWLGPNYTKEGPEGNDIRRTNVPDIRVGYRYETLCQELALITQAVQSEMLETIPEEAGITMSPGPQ

[3] = target: T2, cysteines in MDA-MB-231 and Ramos cells (Homo sapiens, UniProt O75717)
T2 sequence (O75717 1-1129): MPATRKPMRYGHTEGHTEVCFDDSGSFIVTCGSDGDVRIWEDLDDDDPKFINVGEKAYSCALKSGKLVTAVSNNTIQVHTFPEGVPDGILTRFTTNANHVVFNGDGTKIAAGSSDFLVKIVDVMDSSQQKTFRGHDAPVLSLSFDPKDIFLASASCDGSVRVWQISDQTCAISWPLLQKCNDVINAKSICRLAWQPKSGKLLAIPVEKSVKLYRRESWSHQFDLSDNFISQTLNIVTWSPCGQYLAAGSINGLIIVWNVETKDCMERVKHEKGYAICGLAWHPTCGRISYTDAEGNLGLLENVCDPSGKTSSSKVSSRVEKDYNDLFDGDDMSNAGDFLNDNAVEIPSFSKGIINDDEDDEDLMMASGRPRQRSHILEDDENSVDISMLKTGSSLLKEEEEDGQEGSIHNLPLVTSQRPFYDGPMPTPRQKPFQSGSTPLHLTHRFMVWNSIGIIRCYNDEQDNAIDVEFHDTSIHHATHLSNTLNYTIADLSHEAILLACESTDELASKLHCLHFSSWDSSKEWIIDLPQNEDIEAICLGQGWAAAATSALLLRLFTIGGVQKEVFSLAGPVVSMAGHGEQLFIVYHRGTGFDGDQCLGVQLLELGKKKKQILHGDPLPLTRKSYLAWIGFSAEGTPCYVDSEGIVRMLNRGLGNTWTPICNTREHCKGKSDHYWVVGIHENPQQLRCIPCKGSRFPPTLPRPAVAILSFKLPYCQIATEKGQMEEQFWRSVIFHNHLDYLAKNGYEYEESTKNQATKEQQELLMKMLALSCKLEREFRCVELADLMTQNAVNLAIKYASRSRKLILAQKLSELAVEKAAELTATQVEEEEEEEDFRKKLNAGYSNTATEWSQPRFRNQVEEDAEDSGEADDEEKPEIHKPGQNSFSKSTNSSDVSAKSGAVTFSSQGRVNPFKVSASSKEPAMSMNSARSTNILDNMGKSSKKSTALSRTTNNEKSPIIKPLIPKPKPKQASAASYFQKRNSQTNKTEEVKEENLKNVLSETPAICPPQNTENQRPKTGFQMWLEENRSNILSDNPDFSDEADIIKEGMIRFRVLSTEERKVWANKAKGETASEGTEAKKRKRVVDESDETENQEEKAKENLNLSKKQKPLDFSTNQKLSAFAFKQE

[4] = target: T3, cysteines in MDA-MB-231 and Ramos cells (Homo sapiens, UniProt P29590)
T3 sequence (P29590 1-882): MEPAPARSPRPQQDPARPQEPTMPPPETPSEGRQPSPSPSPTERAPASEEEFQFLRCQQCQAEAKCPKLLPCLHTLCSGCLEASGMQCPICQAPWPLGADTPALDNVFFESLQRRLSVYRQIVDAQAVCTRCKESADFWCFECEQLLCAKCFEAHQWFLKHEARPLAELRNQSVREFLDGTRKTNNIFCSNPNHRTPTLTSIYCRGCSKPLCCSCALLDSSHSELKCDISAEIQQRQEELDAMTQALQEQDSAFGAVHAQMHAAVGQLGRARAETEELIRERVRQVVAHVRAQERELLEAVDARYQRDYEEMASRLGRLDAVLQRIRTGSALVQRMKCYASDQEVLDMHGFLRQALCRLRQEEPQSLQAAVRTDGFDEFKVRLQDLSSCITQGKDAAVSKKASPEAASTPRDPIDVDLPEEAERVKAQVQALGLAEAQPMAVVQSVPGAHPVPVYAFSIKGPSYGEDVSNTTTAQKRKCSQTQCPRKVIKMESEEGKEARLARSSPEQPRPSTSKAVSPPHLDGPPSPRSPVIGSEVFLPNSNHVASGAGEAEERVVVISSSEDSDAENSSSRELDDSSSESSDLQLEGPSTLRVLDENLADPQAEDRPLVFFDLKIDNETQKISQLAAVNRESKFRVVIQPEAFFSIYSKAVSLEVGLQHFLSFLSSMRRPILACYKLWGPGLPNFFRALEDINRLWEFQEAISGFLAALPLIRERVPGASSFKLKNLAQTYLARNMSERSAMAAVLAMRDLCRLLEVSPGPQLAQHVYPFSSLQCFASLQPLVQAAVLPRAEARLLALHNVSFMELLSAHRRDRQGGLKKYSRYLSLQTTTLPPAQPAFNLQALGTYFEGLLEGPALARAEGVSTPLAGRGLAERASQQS

[5] = target: cysteines in MDA-MB-231 and Ramos cells (Homo sapiens, UniProt Q00765)
cysteines in MDA-MB-231 and Ramos cells (Homo sapiens, UniProt Q00765), sequence (Q00765 whole entry): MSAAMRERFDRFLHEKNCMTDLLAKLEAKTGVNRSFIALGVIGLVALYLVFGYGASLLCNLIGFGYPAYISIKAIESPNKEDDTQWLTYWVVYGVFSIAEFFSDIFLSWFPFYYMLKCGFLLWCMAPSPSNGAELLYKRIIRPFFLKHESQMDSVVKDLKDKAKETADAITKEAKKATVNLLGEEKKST

cysteines in MDA-MB-231 and Ramos cells (Homo sapiens, UniProt O14980), sequence (O14980 whole entry): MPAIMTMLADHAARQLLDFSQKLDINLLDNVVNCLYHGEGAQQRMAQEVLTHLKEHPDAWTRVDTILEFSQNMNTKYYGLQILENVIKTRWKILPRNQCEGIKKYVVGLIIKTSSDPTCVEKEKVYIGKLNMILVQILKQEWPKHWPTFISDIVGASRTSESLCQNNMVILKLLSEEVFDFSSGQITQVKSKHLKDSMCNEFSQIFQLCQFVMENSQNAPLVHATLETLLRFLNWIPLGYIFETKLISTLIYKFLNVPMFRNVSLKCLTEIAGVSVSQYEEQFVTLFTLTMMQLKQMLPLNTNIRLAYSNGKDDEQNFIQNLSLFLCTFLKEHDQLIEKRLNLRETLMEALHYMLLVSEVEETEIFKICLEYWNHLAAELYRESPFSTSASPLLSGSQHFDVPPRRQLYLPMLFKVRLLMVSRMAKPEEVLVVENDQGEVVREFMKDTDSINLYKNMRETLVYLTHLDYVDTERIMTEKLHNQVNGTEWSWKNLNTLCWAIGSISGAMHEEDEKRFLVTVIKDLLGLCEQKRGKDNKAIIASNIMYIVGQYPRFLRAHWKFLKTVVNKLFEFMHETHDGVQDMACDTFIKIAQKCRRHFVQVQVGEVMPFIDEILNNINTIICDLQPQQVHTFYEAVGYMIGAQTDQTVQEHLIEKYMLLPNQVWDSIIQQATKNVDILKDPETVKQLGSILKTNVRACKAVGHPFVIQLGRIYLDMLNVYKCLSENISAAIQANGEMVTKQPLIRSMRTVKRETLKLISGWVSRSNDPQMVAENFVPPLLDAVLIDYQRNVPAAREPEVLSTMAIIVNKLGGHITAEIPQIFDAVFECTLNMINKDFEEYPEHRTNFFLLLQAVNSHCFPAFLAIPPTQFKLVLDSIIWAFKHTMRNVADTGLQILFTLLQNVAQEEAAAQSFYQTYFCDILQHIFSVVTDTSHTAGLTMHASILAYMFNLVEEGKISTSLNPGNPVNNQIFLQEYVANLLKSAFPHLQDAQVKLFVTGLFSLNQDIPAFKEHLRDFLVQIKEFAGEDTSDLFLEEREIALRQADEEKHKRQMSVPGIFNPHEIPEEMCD

SMILES: Cc1ccc(C=C(C#N)C(=O)NCCN2CCOCC2)cc1 [compound 41]
- isoTOP-ABPP ratio O14980_C528 ([1]; 200 μM, insitu, 231): 0.9
- isoTOP-ABPP ratio Q01433_C107 ([2]; 200 μM, insitu, 231): 0.5
- isoTOP-ABPP ratio O75717_C773 ([3]; 200 μM, insitu, 231): 1.0
- isoTOP-ABPP ratio P29590_C389 ([4]; 200 μM, insitu, 231): 0.4

SMILES: O=C(CCl)NC(=O)NC12CC3CC(CC(C3)C1)C2 [compound 12]
- isoTOP-ABPP ratio Q00765_C18 ([5]; 200 μM, insitu, 231): 20.0

SMILES: O=C(CCl)NCCc1c[nH]c2ccccc12 [compound 13]
- isoTOP-ABPP ratio O14980_C528 ([1]; 200 μM, insitu, 231): 1.1
- isoTOP-ABPP ratio O14980_C528 ([1]; 200 μM, insitu, ramos): 1.1
- isoTOP-ABPP ratio Q00765_C18 ([5]; 200 μM, insitu, 231): 1.2
- isoTOP-ABPP ratio, cysteine O75717_C773 ([3]; 200 μM, insitu, 231): 1.1
- isoTOP-ABPP ratio P29590_C389 ([4]; 200 μM, insitu, 231): 1.3

SMILES: O=C(CCl)N1CCC(Cc2ccccc2)CC1 [compound 9]
- isoTOP-ABPP reactivity Q01433_C107 AMPD2 ([2]; 200 μM, insitu, 231): 3.1

SMILES: COc1ccc(C2CC(c3cccs3)=NN2C(=O)CCl)cc1 (stereo not shown) [compound 4]
- isoTOP-ABPP reactivity O14980_0528 XPO1 ([1]; 100 μM in situ 231): 1.9
- isoTOP-ABPP reactivity Q01433_C107 AMPD2 ([2]; 100 μM in situ 231): 2.3
- isoTOP-ABPP reactivity Q00765_018 REEP5 ([5]; 100 μM in situ 231): 20.0

SMILES: O=C(CCl)NC12CC3CC(CC(C3)C1)C2 [compound 21]
- isoTOP-ABPP ratio O14980_C528 ([1]; 200 μM, insitu, 231): 0.8
- isoTOP-ABPP ratio Q00765_C18 ([5]; 200 μM, insitu, 231): 0.7
- isoTOP-ABPP ratio P29590_C389 ([4]; 200 μM, insitu, 231): 20.0

SMILES: O=C(CCl)Nc1cccc2ncccc12 [compound 51]
- isoTOP-ABPP ratio O14980_C528 ([1]; 200 μM, insitu, 231): 1.1
- isoTOP-ABPP ratio P29590_C389 ([4]; 200 μM, insitu, 231): 0.9

SMILES: Cn1cc(S(=O)(=O)N2CCOCC2)cc1C(=O)NC(=O)CCl [compound 11]
- isoTOP-ABPP ratio O14980_C528 ([1]; 100 μM in situ 231): 0.7
- isoTOP-ABPP ratio, cysteine Q01433_C107 ([2]; 100 μM in situ 231): 0.6
- isoTOP-ABPP ratio Q00765_C18 ([5]; 100 μM in situ 231): 0.8
- isoTOP-ABPP ratio, cysteine O75717_C773 ([3]; 100 μM in situ 231): 1.2
- isoTOP-ABPP ratio P29590_C389 ([4]; 100 μM in situ 231): 0.5

SMILES: C=CC(=O)Nc1cc(F)c(N2CCN(C(=O)OC(C)(C)C)CC2)c(F)c1 [compound 38]
- isoTOP-ABPP ratio O14980_C528 ([1]; 200 μM, insitu, 231): 2.1
- isoTOP-ABPP ratio O75717_C773 ([3]; 200 μM, insitu, 231): 2.3
- isoTOP-ABPP ratio P29590_C389 ([4]; 200 μM, insitu, 231): 2.2

SMILES: CC1CCc2ccccc2N1C(=O)CCl (stereo not shown) [compound 45]
- isoTOP-ABPP ratio Q00765_C18 ([5]; 200 μM, insitu, 231): 20.0
- isoTOP-ABPP ratio O75717_C773 ([3]; 200 μM, insitu, 231): 3.6
- isoTOP-ABPP ratio P29590_C389 ([4]; 200 μM, insitu, 231): 3.4

SMILES: COc1ccc2c(c1)CCCN2C(=O)CCl [compound 2]
- isoTOP-ABPP reactivity O14980_0528 XPO1 ([1]; 200 μM, insitu, 231): 20.0
- isoTOP-ABPP reactivity Q01433_C107 AMPD2 ([2]; 200 μM, insitu, 231): 4.4
- isoTOP-ABPP reactivity P29590_C389 PML ([4]; 200 μM, insitu, 231): 15.6

SMILES: COc1cc2c(cc1OC)CN(C(=O)CCl)CC2 [compound 8]
- isoTOP-ABPP reactivity Q01433_C107 AMPD2 ([2]; 200 μM, insitu, 231): 6.2
- isoTOP-ABPP reactivity Q00765_018 REEP5 ([5]; 200 μM, insitu, 231): 2.7
- isoTOP-ABPP reactivity O75717_C773 WDHDl ([3]; 200 μM, insitu, 231): 4.2

SMILES: CC(C)CCOCCNC(=O)CCl [compound 27]
- isoTOP-ABPP ratio Q01433_C107 ([2]; 200 μM, insitu, 231): 0.4
- isoTOP-ABPP ratio Q00765_C18 ([5]; 200 μM, insitu, 231): 1.1
- isoTOP-ABPP ratio P29590_C389 ([4]; 200 μM, insitu, 231): 0.5
- reactivity profile of liganded cysteine P29590_C213 with fragment electrophile (isoTOP-ABPP ratio) ([4]; cysteine P29590_C213, fragment 200 μM, in situ, 231 (MDA-MB-231) cells): 0.8

SMILES: O=C(CCl)N1CCN(S(=O)(=O)c2ccccc2F)CC1 [compound 10]
- isoTOP-ABPP ratio O14980_C528 ([1]; 200 μM, insitu, 231): 1.3
- isoTOP-ABPP ratio O14980_C528 ([1]; 200 μM, insitu, ramos): 0.7
- isoTOP-ABPP ratio Q00765_C18 ([5]; 200 μM, insitu, 231): 4.2
- isoTOP-ABPP ratio, cysteine O75717_C773 ([3]; 200 μM, insitu, 231): 2.2
- isoTOP-ABPP ratio P29590_C389 ([4]; 200 μM, insitu, 231): 7.9

SMILES: O=C(CCl)N1CCN(CC(=O)N2CCOCC2)CC1 [compound 29]
- isoTOP-ABPP ratio O14980_C528 ([1]; 200 μM, insitu, ramos): 1.1
- isoTOP-ABPP ratio Q00765_C18 ([5]; 200 μM, insitu, ramos): 1.4

SMILES: C=CC(=O)N(Cc1cccnc1)c1cc(C(F)(F)F)cc(C(F)(F)F)c1 [compound 31]
- isoTOP-ABPP ratio Q01433_C107 ([2]; 200 μM, insitu, 231): 0.7
- isoTOP-ABPP ratio P29590_C389 ([4]; 200 μM, insitu, 231): 1.1
